Laboratory results: ChEMBL document CHEMBL4330164, “Propolis Components from Stingless Bees Collected on South Sulawesi, Indonesia, and Their Xanthine Oxidase Inhibitory Activity” (J Nat Prod, 2019)

Biological target: Xanthine dehydrogenase/oxidase (Bos taurus, UniProt P80457)
Assay: Inhibition of bovine milk xanthine oxidase assessed as reduction in uric acid production using xanthine as substrate after 10 mins by HPLC analysis; call rule not given here

Chain of Xanthine dehydrogenase/oxidase (P80457 whole entry): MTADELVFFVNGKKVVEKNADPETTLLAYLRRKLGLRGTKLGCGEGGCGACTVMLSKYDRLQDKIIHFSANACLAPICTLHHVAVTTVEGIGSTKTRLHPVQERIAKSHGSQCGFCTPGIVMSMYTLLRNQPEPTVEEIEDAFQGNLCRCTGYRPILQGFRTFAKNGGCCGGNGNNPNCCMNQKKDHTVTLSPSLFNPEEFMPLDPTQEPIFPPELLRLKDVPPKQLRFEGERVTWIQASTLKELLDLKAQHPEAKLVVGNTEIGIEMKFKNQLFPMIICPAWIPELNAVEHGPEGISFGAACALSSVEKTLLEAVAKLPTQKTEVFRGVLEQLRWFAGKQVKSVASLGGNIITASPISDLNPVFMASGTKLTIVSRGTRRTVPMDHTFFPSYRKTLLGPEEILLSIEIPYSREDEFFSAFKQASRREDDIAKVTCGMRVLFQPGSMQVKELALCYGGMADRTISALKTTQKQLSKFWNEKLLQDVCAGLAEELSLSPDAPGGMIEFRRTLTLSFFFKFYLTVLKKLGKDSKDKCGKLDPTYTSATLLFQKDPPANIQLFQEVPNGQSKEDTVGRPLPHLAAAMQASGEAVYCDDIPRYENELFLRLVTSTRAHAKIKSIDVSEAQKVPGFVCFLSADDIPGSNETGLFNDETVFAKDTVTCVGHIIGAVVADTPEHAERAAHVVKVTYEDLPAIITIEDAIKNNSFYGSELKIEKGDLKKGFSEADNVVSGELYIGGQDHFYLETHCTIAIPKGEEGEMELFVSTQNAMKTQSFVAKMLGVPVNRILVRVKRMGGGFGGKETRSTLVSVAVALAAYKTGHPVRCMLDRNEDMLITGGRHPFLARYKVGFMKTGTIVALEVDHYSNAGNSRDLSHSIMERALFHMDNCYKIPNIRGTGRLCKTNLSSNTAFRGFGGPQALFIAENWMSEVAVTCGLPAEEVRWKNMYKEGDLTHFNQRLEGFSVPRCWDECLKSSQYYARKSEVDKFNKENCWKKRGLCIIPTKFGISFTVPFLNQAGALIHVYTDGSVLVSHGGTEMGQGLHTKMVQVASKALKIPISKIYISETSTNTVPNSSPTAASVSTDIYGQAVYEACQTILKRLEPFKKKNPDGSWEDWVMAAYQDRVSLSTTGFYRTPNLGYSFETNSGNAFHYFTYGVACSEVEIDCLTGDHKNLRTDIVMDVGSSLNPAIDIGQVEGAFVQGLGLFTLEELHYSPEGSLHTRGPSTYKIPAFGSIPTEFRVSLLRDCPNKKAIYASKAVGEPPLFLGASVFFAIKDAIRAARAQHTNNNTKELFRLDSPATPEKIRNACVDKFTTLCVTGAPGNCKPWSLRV

IC50 [µM]	inhibition (INH) (cattle, 10 min)	Structure (SMILES)
3.9		COc1cc(-c2c(O)c(=O)oc3cc(O)cc(O)c23)ccc1O
	Active	COc1cc([C@@H]2c3c(cc4c(c3OC)OCO4)C[C@@H]3COC[C@H]32)cc2c1OCO2
